The values below come from PubChem BioAssay (NCI).

Some test systems named below: UACC-257 melanoma; SR leukemia; MCF7 breast; CAKI-1 renal; KM12 colon; HOP-62 NSCLC; SF-268 CNS; HCT-116 colon; 786-0 renal; MDA-MB-435.
Common to all, as to experiment: growth of human tumour cells (NCI), 48 h

Each structure is given as a SMILES string. “And” between values parts separate entries of the source, which are not always exact repeats. Identical values can stand only once.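 Test compounds were applied to cells in 96-well plates for 48 hours at 5 doses. Here, GI50 denotes the concentration required for 50% inhibition of growth. TGI: concentration producing complete growth inhibition.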

`Cc1cc(NS(=O)(=O)c2ccc(-c3cnc(C4CC4)o3)cc2)ccc1Cl`: the GI50 in the test with UACC-257 melanoma was 1.77 µM; with SR leukemia, 0.0919 µM; in the test on MCF7 breast, 0.0708 µM; in the test with CAKI-1 renal, 0.0908 µM; in the test on KM12 colon it was 0.187 µM; with HOP-62 NSCLC, 0.313 µM. Also, the GI50 is 2.19 µM with SF-268 CNS, 0.264 µM in the test on HCT-116 colon and 0.605 µM with 786-0 renal. For the same compound, the TGI in the test with UACC-257 melanoma stood at 18.2 µM; with SR leukemia, 45.6 µM; in the test with MCF7 breast, 12.2 µM; with CAKI-1 renal, 15.5 µM; with KM12 colon, 13.4 µM; in the test with HOP-62 NSCLC, 17 µM. Moreover, the TGI in the test on SF-268 CNS turned out to be 19.9 µM; in the test on HCT-116 colon, 13.4 µM; with 786-0 renal, 17.8 µM.

As for `COc1ccc(/C=C/C(=O)C(=O)/C=C/c2ccc(OC)c(OC)c2)cc1OC`, the GI50 was 0.516 µM with MCF7 breast; 3.17 µM in the test with CAKI-1 renal; 1.6 µM in the test on KM12 colon; 1.16 µM in the test on MDA-MB-435; 6.8 µM in the test with HOP-62 NSCLC; 2.53 µM with SF-268 CNS. Further, the GI50 was 0.319 µM with HCT-116 colon and 2.28 µM in the test on 786-0 renal. Further, the TGI in the test on MCF7 breast is 9.48 µM; with CAKI-1 renal it was greater than 100 µM; in the test on KM12 colon it was 3.67 µM; with MDA-MB-435 it was 2.98 µM; in the test with HOP-62 NSCLC it was greater than 100 µM; in the test with SF-268 CNS, 8.58 µM. Also, the values for the TGI in the test on HCT-116 colon and with 786-0 renal were 1.33 µM and 7.88 µM, respectively.

With `CN1CCN(CCCCCOc2cc(O)c3c(=O)cc(-c4ccccc4)oc3c2)CC1`, the GI50 with UACC-257 melanoma is 2.03 µM; in the test with MCF7 breast it was 3.45 µM; in the test with KM12 colon it was 2.84 µM; in the test with MDA-MB-435, 2.32 µM; in the test on HOP-62 NSCLC, 2.96 µM; in the test on SF-268 CNS it was 11.7 µM. Further, the GI50 was 1.74 µM in the test with HCT-116 colon and 12.4 µM in the test on 786-0 renal. The TGI in the test with UACC-257 melanoma is 3.78 µM; with MCF7 breast, 11.3 µM; in the test with KM12 colon it was 9.66 µM; in the test with MDA-MB-435, 5.33 µM; in the test on HOP-62 NSCLC, 8.54 µM; in the test on SF-268 CNS it was greater than 100 µM. Also, the TGI was determined as 4.08 µM in the test on HCT-116 colon and 26.6 µM in the test on 786-0 renal.

For the compound `CC[C@@]1(O)C(=O)OCc2c1cc1n(c2=O)Cc2cc3cc(O)ccc3nc2-1`, the GI50 was 0.047 µM and 0.156 µM in the test on UACC-257 melanoma; 0.042 µM in the test with CAKI-1 renal; 0.127 µM and 0.142 µM in the test on KM12 colon; less than 0.0075 µM in the test with HOP-62 NSCLC; 0.0192 µM with SF-268 CNS; 0.0228 µM and 0.0176 µM in the test with HCT-116 colon. For the same compound, the TGI in the test with UACC-257 melanoma is 0.481 µM and 2.1 µM; in the test on SR leukemia, 2.14 µM; in the test with KM12 colon it was 2.34 µM and 5.38 µM; with MDA-MB-435, 1.09 µM; with HOP-62 NSCLC, 0.0319 µM and 0.153 µM; with HCT-116 colon, 13.7 µM. In addition, the TGI with 786-0 renal was 0.9 µM.

With `Nc1nc(N)c2c(Cl)c(CNc3ccc(Cl)c(Cl)c3)ccc2n1`, the TGI stood at 19.4 µM with UACC-257 melanoma; 7.36 µM in the test on SR leukemia; 16 µM in the test with CAKI-1 renal; 3.19 µM in the test on KM12 colon; 17.5 µM with MDA-MB-435; 6.59 µM in the test with HOP-62 NSCLC. The TGI in the test on SF-268 CNS amounted to 15.7 µM; with HCT-116 colon, 12.4 µM; in the test with 786-0 renal it was 8.39 µM.

Take `Cc1ccc(/C=C(/C#N)n2nnc3cccc(F)c32)cc1`: the GI50 was 1.13 µM in the test with UACC-257 melanoma; 0.122 µM in the test with SR leukemia; 0.466 µM with MCF7 breast; 0.327 µM in the test on CAKI-1 renal; 0.332 µM with KM12 colon; 1.37 µM in the test on HOP-62 NSCLC. In addition, the GI50 in the test on SF-268 CNS was 0.58 µM; in the test with HCT-116 colon it was 0.379 µM; in the test with 786-0 renal, 0.384 µM. Also, the TGI with UACC-257 melanoma was 39.9 µM; with SR leukemia, greater than 35.5 µM; in the test on MCF7 breast it was 16.6 µM; in the test with CAKI-1 renal it was 25.3 µM; with KM12 colon it was 5.16 µM; in the test with HOP-62 NSCLC, greater than 100 µM. Also, the figures for the TGI in the test with SF-268 CNS, in the test with HCT-116 colon and with 786-0 renal were 12.5 µM, 6.54 µM and 14.1 µM, respectively.

Regarding `CCOC(=O)C1(C)C2=CC=C(O2)C(C)(C)C2=CC=C(O2)C(C)(C)C2=CC=C(O2)C(C)(C)C2=CC=C1O2`, the TGI in the test with UACC-257 melanoma, in the test on SR leukemia, in the test with CAKI-1 renal, with KM12 colon, with HOP-62 NSCLC and in the test with SF-268 CNS was greater than 100 µM each time. Besides, the TGI with HCT-116 colon and in the test on 786-0 renal was greater than 100 µM throughout.

Take `[pH]1p2[pH]p3p1p3[pH]2.c1cc[c]([Ge]([c]2ccccc2)[c]2ccccc2)cc1.c1cc[c]([Ge]([c]2ccccc2)[c]2ccccc2)cc1.c1cc[c]([Ge]([c]2ccccc2)[c]2ccccc2)cc1`: the GI50 with UACC-257 melanoma was 15.2 µM; with SR leukemia, 12.8 µM; in the test with CAKI-1 renal, 20.6 µM; in the test on KM12 colon, 15.1 µM; with HOP-62 NSCLC, 28.7 µM; in the test with SF-268 CNS it was 16.4 µM. Also, the GI50 with HCT-116 colon is 22.2 µM; in the test with 786-0 renal, 17.1 µM. Also, the TGI worked out at 31.7 µM in the test with UACC-257 melanoma; 80.2 µM with SR leukemia; 44.8 µM in the test on CAKI-1 renal; 33.7 µM in the test with KM12 colon; 66.1 µM with HOP-62 NSCLC; 40.7 µM in the test on SF-268 CNS. Also, the figures for the TGI with HCT-116 colon and in the test on 786-0 renal were 62.3 µM and 32.3 µM, respectively.
